Measured values from US7820839B2, “Taxoid-fatty acid conjugates and pharmaceutical compositions thereof” (The Research Foundation of State University of New York, priority 2003, dated 2010).

How the values were obtained:
[1] = tested on: pgp+ human colon tumor xenograft, DLD-1; conditions: DLD-1
Experimental: Female severe combined immune deficient, (SCID) mice aged six to eight weeks were obtained from either the in-house breeding facility at Roswell Park Cancer Institute or Taconic (Germantown, N.Y.). All aspects of animal care complied with the Institutional Animal Care and Use Committee guidelines. […] Tumors were initiated by implantation of approximately 50 mg of non-necrotic tumor fragments on the right flank using a 12-guage trocar needle. Chemotherapy was started when the tumor was established as a palpable mass, (approximately 50-100 mm^3 size). Therapy consisted of i.v. injections through the tail vein, given four times, three days apart. Each drug treatment group or drug free vehicle consisted of 4-5 mice per group, untreated controls contained 10 mice per group.
These were used for comparison purposes. DHA-taxoids and other omega-3 fatty acid-taxoids were prepared as a 30 mg/mL stock solution in equal parts of Tween 80 (polyoxyethylene-sorbitan monooleate; purchased from Sigma Chemical Company) and absolute ethanol. To stablize the formulation of the DHA-taxoids and other omega-3 fatty acid-taxoids, antioxidants, L-ascorbic acid (3.9 mM) and α-tocopherol (2.0 mM), were added. Each stock solution was further diluted before use in 0.9% NaCl (saline) so that the appropriate concentration of each drug could be injected i.v. via the tail vein, in a volume of approximately 0.4 mL for a 20 g mouse. Each drug was administered once a day on […].
For each animal, the tumor length (1) and width (w), each in mm, were measured using electronic calipers and recorded every 3-4 days. Tumor volume (v), in mm^3, was calculated using the formula: v=0.4(l×w^2). The time in days to the pre-determined target tumor volume of 600 mm^3 was linearly interpolated from a plot of log(volume) versus time. Statistically significant differences in tumor volumes between control and drug-treated mice were determined by the Cox-Mantel test. […] All statistical tests were two-sided.

[2] = tested on: human colon carcinoma SW-620 xenografts; conditions: SW-620 xenografts in mice; cited from earlier work
[3] = total dose 150 mg/kg (50 mg/kg/inj) i.v., SCID mice

## CC(=O)O[C@H]1C(=O)[C@@]2(C)[C@H]([C@H](OC(=O)c3ccccc3)[C@]34OC(=O)O[C@H]3[C@H](OC(=O)[C@H](O)[C@H](CC(C)C)NC(=O)OC(C)(C)C)C(C)=C1C4(C)C)[C@]1(OC(C)=O)CO[C@@H]1C[C@@H]2O [IDN-5109, ortataxel, reference compound]
[1]; total dose 150 mg/kg (50 mg/kg/inj) i.v. day 5, 8 and 11, SCID mice
  Days to 600 mm^3 Median: 46 days
[1]; [3]
  Growth Delay: 32 days
  Toxicity: number of animals who either died or lost greater than 20% body weight: 0
[1]; tumors less than 600 mm^3 on day 201, total dose 150 mg/kg (50 mg/kg/inj) i.v.
  Tumor free mice/Group: 0/3
[2]
  activity against xenografts (in words): impressive activity
